This note sets out measurements from ChEMBL document CHEMBL1129197, “A rapid synthesis of some 5-amino- nucleosides and nucleotides as potential antiviral compounds” (Bioorg Med Chem Lett, 1996).

What is called CC50 is the concentration that lowers cell viability or growth by half. As a reminder, the EC50 is the concentration giving half of the maximal effect. Higher therefore signals weaker potency.

Assay [1] is described as follows: Ratio of CC50 to EC50 against HIV-1/C8166 cells was evaluated. In kind it is functional.
Assay [2] deals with C8166. Nature of the assay: Concentration which reduces the viability of uninfected C8166 cells by 50%. To be noted: Homo sapiens. In kind it is functional.
The subject of assay [3] is C8166. Nature of the assay: Compound was evaluated for inhibitory activity against HIV-1 infected C8166 cells. In kind it is functional, cell-based. As to conditions: Homo sapiens.

On to `Cc1cn(C2CC(N=[N+]=[N-])C(CNP(=O)(OCC(Cl)(Cl)Cl)OCC(Cl)(Cl)Cl)O2)c(=O)[nH]c1=O` (centres undefined), for which the Selectivity in assay [1] is 3.3. Besides, the midpoint of cytotoxicity in assay [2], the CC50, lay at 100 µM. In addition, in assay [3], the EC50 came to 30 µM.
For `Cc1cn(C2CC(N=[N+]=[N-])C(CN3C(=O)c4ccccc4C3=O)O2)c(=O)[nH]c1=O` (centres undefined), the Selectivity in assay [1] is 10. For the same compound, in assay [2], the CC50 was determined as 1000 µM. The compound further displayed an EC50 in assay [3] of 100 µM.
With `Cc1cn2c(nc1=O)OC1CC2OC1CN1C(=O)c2ccccc2C1=O` (centres undefined), the Selectivity in assay [1] is above 2.5. The compound further returned a CC50 in assay [2] above 1000 µM. The compound further returned an EC50 in assay [3] of 400 µM.
In the same order, the values of `Cc1cn(C2CC(N=[N+]=[N-])C(CN)O2)c(=O)[nH]c1=O` (centres undefined) are above 25, above 1000 µM and 40 µM.
For the compound `Cc1cn([C@H]2C[C@H](N=[N+]=[N-])[C@@H](CO)O2)c(=O)[nH]c1=O` [ZIDOVUDINE], the Selectivity in assay [1] was 62500. Moreover, the CC50 in assay [2] was above 1000 µM.
